In ChEMBL document CHEMBL4507262, “Data for DCP probe A-1596586” (2021):

Legend:
[1] = biological target: Muscarinic acetylcholine receptor M3 (Homo sapiens) (UniProt P20309); conditions: Compound concentration 10.0 uM
[2] = biological target: Serine/threonine-protein kinase SIK2 (Homo sapiens) (UniProt Q9H0K1); conditions: Compound concentration 1000.0 nM
[3] = biological target: Tyrosine-protein kinase JAK3 (Homo sapiens) (UniProt P52333); conditions: Compound concentration 1000.0 nM
[4] = biological target: Serine/threonine-protein kinase 38 (Homo sapiens) (UniProt Q15208); conditions: Compound concentration 1000.0 nM
[5] = biological target: Phosphatidylinositol 3-kinase C2 domain-containing subunit gamma (Homo sapiens) (UniProt O75747); conditions: Compound concentration 1000.0 nM
[6] = biological target: T1, GABA-A receptor; anion channel (Rattus norvegicus) (UniProt O09028+P15431+P18506+P18508+P19969+P20236+P23574+P23576+P28471+P28473+P30191+P62813+P63079+P63138+Q91ZM7+Q9ES14); conditions: Compound concentration 10.0 uM
[7] = biological target: RAF proto-oncogene serine/threonine-protein kinase (Homo sapiens) (UniProt P04049); conditions: Compound concentration 1000.0 nM
[8] = biological target: Leucine-rich repeat serine/threonine-protein kinase 2 (Homo sapiens) (UniProt Q5S007); conditions: Compound concentration 1000.0 nM
[9] = system: Proto-oncogene tyrosine-protein kinase receptor Ret (Homo sapiens), P07949 [V804M]; conditions: Compound concentration 1000.0 nM
[10] = biological target: Ephrin type-A receptor 2 (Homo sapiens) (UniProt P29317); conditions: Compound concentration 1000.0 nM
[11] = biological target: Ribosomal protein S6 kinase alpha-1 (Homo sapiens) (UniProt Q15418); conditions: Compound concentration 1000.0 nM
[12] = biological target: G protein-coupled receptor kinase 4 (Homo sapiens) (UniProt P32298); conditions: Compound concentration 1000.0 nM
[13] = biological target: Urotensin-2 receptor (Homo sapiens) (UniProt Q9UKP6); test: UT (h) Eurofins-Cerep binding assay; set-up: ligand concentration 0.1 nM; conditions: filed as agonist, Compound concentration 10.0 uM
[14] = biological target: Serine/threonine-protein kinase OSR1 (Homo sapiens) (UniProt O95747); conditions: Compound concentration 1000.0 nM
[15] = biological target: T2, Muscarinic acetylcholine receptor M5 (Homo sapiens) (UniProt P08912); conditions: Compound concentration 10.0 uM
T2 sequence (whole entry): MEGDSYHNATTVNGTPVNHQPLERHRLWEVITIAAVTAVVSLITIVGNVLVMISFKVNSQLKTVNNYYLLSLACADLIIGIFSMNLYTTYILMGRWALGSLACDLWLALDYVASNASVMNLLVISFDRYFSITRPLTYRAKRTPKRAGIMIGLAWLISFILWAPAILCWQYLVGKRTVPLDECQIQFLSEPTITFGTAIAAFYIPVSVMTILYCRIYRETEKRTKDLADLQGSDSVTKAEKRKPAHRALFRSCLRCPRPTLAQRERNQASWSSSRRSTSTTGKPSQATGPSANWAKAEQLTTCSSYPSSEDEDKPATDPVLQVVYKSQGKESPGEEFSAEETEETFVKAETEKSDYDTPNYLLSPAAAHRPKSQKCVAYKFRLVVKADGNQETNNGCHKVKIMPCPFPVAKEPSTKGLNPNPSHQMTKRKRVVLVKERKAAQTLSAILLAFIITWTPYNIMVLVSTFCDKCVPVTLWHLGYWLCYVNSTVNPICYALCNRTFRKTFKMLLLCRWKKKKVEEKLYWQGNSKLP

[16] = system: Receptor-type tyrosine-protein kinase FLT3 (Homo sapiens), P36888 [D835Y]; conditions: Compound concentration 1000.0 nM
[17] = biological target: Dual specificity protein kinase TTK (Homo sapiens) (UniProt P33981); conditions: Compound concentration 1000.0 nM
[18] = biological target: 5-hydroxytryptamine receptor 7 (Homo sapiens) (UniProt P34969); test: 5-HT7 (h) Eurofins-Cerep binding assay; set-up: ligand concentration 4 nM; conditions: filed as agonist, Compound concentration 10.0 uM
[19] = biological target: Proto-oncogene tyrosine-protein kinase Src (Homo sapiens) (UniProt P12931); conditions: Compound concentration 1000.0 nM
[20] = biological target: Receptor-type tyrosine-protein kinase FLT3 (Homo sapiens) (UniProt P36888); conditions: Compound concentration 1000.0 nM
[21] = biological target: Serine/threonine-protein kinase Sgk2 (Homo sapiens) (UniProt Q9HBY8); conditions: Compound concentration 1000.0 nM
[22] = biological target: 1-phosphatidylinositol 3-phosphate 5-kinase (Homo sapiens) (UniProt Q9Y2I7); conditions: Compound concentration 1000.0 nM
[23] = biological target: Serine/threonine-protein kinase 33 (Homo sapiens) (UniProt Q9BYT3); conditions: Compound concentration 1000.0 nM
[24] = biological target: Inhibitor of nuclear factor kappa-B kinase subunit beta (Homo sapiens) (UniProt O14920); conditions: Compound concentration 1000.0 nM
[25] = biological target: Vascular endothelial growth factor receptor 3 (Homo sapiens) (UniProt P35916); conditions: Compound concentration 1000.0 nM
[26] = biological target: Ephrin type-B receptor 2 (Homo sapiens) (UniProt P29323); conditions: Compound concentration 1000.0 nM
[27] = biological target: Mitogen-activated protein kinase 13 (Homo sapiens) (UniProt O15264); conditions: Compound concentration 1000.0 nM
[28] = biological target: T1, GABA-A receptor; anion channel (Rattus norvegicus); conditions: Compound concentration 10.0 uM; remark: listed apart in the source
[29] = biological target: Platelet-derived growth factor receptor beta (Homo sapiens) (UniProt P09619); conditions: Compound concentration 1000.0 nM
[30] = system: Tyrosine-protein kinase ABL1 (Homo sapiens), P00519 [T315I]; conditions: Compound concentration 1000.0 nM
[31] = biological target: Protein kinase C theta type (Homo sapiens) (UniProt Q04759); conditions: Compound concentration 1000.0 nM
[32] = biological target: Dual specificity mitogen-activated protein kinase kinase 5 (Homo sapiens) (UniProt Q13163); conditions: Compound concentration 1000.0 nM
[33] = biological target: Cyclin-dependent kinase 16 (Homo sapiens) (UniProt Q00536); conditions: Compound concentration 1000.0 nM
[34] = biological target: Serine/threonine-protein kinase Nek10 (Homo sapiens) (UniProt Q6ZWH5); conditions: Compound concentration 1000.0 nM
[35] = biological target: BDNF/NT-3 growth factors receptor (Homo sapiens) (UniProt Q16620); conditions: Compound concentration 1000.0 nM

Sequence of Serine/threonine-protein kinase OSR1 (Homo sapiens) (O95747 2-527 limits assumed): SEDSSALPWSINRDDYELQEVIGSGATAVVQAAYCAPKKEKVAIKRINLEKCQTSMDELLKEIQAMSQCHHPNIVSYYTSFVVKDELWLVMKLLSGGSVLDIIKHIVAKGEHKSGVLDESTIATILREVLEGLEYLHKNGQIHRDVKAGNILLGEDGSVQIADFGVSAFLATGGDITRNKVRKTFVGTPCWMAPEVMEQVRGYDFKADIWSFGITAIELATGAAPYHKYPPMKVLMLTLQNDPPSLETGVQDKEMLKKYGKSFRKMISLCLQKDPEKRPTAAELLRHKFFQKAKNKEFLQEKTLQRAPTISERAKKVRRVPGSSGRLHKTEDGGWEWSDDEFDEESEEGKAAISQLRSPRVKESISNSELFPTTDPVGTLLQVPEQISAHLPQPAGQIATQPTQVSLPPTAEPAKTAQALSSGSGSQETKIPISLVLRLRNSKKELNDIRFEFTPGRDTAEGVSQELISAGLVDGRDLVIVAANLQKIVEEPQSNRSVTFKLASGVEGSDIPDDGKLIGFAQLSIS
Sequence of Leucine-rich repeat serine/threonine-protein kinase 2 (Homo sapiens) (Q5S007 whole entry): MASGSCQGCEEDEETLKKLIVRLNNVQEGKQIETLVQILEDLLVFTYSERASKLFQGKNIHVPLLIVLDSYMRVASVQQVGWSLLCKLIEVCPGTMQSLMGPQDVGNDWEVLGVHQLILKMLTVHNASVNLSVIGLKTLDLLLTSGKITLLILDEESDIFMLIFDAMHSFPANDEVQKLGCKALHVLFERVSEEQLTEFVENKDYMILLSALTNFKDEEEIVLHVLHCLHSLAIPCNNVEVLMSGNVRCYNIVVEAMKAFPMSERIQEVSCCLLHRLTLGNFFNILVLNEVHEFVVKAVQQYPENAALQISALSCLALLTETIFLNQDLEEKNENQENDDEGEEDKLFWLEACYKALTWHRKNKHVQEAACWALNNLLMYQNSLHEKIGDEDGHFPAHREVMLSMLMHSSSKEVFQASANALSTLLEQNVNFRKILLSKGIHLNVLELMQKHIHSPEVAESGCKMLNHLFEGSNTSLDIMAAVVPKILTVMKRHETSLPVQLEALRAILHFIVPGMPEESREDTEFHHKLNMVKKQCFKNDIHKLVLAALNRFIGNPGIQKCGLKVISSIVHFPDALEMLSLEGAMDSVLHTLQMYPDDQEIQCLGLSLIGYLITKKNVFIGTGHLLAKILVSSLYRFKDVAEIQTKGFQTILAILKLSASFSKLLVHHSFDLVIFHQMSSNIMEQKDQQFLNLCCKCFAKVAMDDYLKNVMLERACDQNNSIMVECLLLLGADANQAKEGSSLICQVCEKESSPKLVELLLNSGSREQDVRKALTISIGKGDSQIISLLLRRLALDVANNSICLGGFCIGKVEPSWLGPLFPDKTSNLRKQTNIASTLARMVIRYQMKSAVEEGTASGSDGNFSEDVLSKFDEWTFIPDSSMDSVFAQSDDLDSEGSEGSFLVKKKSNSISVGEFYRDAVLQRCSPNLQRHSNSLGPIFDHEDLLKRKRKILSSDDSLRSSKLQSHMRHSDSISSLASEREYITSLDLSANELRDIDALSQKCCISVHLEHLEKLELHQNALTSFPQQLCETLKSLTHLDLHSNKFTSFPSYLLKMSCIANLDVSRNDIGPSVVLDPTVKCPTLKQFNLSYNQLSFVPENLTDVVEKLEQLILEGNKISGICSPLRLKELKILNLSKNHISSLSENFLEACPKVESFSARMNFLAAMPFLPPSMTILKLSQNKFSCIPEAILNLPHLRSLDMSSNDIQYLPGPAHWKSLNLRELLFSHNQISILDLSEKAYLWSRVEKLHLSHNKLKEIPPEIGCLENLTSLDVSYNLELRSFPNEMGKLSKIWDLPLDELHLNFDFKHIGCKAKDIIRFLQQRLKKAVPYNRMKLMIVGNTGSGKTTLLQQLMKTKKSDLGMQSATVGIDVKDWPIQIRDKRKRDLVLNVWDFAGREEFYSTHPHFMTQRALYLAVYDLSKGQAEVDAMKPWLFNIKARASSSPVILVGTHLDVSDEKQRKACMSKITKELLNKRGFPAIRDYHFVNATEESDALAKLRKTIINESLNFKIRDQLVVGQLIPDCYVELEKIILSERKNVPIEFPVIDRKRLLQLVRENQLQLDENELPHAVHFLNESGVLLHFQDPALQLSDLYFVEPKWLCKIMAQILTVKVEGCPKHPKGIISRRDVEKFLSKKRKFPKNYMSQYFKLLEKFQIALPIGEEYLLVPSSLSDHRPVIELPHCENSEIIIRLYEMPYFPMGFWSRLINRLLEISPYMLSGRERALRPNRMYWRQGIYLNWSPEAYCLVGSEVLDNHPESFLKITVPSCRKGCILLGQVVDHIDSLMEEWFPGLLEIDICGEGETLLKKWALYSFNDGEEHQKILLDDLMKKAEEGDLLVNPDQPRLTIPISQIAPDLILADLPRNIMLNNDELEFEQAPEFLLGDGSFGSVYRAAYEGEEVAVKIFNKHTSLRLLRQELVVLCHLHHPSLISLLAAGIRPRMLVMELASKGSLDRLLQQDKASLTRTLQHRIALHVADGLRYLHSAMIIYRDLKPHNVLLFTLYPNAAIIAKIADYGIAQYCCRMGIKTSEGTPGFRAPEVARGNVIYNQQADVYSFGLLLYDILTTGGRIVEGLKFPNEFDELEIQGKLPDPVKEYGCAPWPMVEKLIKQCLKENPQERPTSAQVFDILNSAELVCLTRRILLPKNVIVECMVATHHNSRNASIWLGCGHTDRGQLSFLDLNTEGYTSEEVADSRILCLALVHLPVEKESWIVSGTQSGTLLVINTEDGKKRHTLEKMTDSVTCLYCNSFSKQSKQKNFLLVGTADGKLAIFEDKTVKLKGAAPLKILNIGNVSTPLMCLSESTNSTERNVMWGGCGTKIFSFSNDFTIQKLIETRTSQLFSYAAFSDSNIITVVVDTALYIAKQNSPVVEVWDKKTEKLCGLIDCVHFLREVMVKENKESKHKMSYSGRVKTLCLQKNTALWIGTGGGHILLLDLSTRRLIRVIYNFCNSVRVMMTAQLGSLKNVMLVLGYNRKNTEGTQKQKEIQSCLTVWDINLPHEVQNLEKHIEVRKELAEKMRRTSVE
Sequence of Serine/threonine-protein kinase SIK2 (Homo sapiens) (Q9H0K1 whole entry, looked up): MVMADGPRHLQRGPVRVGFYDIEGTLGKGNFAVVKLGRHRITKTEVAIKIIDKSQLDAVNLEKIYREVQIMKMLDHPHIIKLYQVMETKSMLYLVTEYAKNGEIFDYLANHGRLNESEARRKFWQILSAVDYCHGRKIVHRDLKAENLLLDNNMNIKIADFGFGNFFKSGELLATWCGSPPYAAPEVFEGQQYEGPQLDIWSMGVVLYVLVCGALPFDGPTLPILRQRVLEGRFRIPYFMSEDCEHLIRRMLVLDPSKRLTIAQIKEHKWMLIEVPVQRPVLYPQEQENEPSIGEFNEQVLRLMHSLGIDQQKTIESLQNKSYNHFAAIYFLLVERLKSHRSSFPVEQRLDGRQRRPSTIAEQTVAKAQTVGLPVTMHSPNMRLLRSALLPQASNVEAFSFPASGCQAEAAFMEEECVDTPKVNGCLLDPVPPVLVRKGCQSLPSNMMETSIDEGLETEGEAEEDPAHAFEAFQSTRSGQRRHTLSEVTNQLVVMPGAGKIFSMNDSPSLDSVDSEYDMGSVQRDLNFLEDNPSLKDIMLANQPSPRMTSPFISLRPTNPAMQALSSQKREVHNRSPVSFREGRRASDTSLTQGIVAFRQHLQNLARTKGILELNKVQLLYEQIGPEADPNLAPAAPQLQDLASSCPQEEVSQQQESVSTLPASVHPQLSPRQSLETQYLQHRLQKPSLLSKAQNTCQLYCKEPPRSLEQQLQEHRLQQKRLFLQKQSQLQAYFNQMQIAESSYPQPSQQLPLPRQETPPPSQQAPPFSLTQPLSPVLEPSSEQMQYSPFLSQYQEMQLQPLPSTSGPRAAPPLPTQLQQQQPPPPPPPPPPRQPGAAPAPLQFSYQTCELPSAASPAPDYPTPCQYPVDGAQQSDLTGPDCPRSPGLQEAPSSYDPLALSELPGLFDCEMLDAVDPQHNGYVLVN
Sequence of Platelet-derived growth factor receptor beta (Homo sapiens) (P09619 whole entry): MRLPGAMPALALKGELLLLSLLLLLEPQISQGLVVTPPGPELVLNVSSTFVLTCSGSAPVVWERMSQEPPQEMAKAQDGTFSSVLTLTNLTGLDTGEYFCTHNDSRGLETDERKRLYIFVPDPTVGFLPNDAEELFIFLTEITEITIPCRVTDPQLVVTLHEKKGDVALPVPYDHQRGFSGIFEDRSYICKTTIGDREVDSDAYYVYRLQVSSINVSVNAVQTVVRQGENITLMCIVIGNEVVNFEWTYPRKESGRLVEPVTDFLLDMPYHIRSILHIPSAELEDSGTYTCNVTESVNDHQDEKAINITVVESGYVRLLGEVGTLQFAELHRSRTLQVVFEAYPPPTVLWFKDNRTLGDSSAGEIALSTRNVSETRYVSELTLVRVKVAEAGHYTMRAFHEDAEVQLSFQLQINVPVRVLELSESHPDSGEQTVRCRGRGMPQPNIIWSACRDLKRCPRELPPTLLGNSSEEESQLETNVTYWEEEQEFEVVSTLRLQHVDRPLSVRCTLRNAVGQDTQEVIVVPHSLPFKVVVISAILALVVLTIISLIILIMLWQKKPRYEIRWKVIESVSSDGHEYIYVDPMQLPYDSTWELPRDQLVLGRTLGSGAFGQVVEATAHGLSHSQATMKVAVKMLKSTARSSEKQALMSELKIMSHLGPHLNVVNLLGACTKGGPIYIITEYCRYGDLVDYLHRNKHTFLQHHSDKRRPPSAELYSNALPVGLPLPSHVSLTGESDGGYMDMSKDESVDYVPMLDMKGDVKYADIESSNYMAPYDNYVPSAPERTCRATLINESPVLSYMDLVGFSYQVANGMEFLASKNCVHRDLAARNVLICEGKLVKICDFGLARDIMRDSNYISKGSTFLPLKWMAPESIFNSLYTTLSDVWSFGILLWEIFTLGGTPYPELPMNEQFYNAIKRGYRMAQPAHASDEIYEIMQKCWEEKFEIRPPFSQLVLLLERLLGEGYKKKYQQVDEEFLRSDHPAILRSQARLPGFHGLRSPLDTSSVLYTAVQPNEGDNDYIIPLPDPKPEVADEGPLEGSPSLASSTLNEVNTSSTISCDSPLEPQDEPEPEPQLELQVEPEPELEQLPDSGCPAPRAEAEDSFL

| Compound | inhibition [1] | residual activity [2] | residual activity [3] | residual activity [4] | residual activity [5] | inhibition [6] | residual activity [7] | residual activity [8] | residual activity [9] | residual activity [10] | residual activity [11] | residual activity [12] | % Inhibition of Control Specific Binding (Mean n=2) [13] | residual activity [14] | inhibition [15] | residual activity [16] | residual activity [17] | % Inhibition of Control Specific Binding (Mean n=2) [18] | residual activity [19] | residual activity [20] | other results |
| --- | --- | --- | --- | --- | --- | --- | --- | --- | --- | --- | --- | --- | --- | --- | --- | --- | --- | --- | --- | --- | --- |
| COc1ccc2c(c1)O[C@@H](c1ccc(OC)c(OC)c1)C[C@H]2NC(=O)C1(c2ccc3c(c2)OC(F)(F)O3)CC1 [A-1596586] | 1.13% | 95% | 88% | 91% | 83% | 11.1% | 100% | 87% | 95% | 95% | 98% | 92% | 29.3% | 90% | 2.95% | 100% | 100% | -6.3% | 100% | 100% | residual activity [21]: 94%; residual activity [22]: 100%; residual activity [23]: 68%; residual activity [24]: 95%; residual activity [25]: 91%; residual activity [26]: 100%; residual activity [27]: 97%; inhibition [28]: 2.64%; residual activity [29]: 100%; residual activity [30]: 75%; residual activity [31]: 98%; residual activity [32]: 67%; residual activity [33]: 88%; residual activity [34]: 86%; residual activity [35]: 91% |
| COc1ccc2c(c1)O[C@H](c1ccc(OC)c(OC)c1)C[C@@H]2NC(=O)C1(c2ccc3c(c2)OC(F)(F)O3)CC1 [A-1596584] | 2.35% | 100% | 100% | 100% | 61% | -8.42% | 100% | 100% | 100% | 94% | 100% | 100% | 15.7% | 98% | 16.1% | 100% | 100% | -6.4% | 100% | 100% | residual activity [21]: 100%; residual activity [22]: 89%; residual activity [23]: 61%; residual activity [24]: 97%; residual activity [25]: 97%; residual activity [26]: 84%; residual activity [27]: 100%; inhibition [28]: 11.1%; residual activity [29]: 100%; residual activity [30]: 93%; residual activity [31]: 100%; residual activity [32]: 76%; residual activity [33]: 100%; residual activity [34]: 100%; residual activity [35]: 100% |
